Source: patent publication US11964052B2, “Lipid compounds and lipid nanoparticle compositions” (SUZHOU ABOGEN BIOSCIENCES CO., LTD., priority 2021, dated 2024)

Tests used:
Format in all cases: physicochemical
[1] = Encapsulation efficiency of lipid nanoparticles, Quant-it Ribogreen RNA quantification assay; conditions: LNP with mRNA
Method in brief: (§1)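 Lipids 50:10:38.5:1.5 (cationic:DSPC:chol:PEG) in EtOH + mRNA in citrate pH 4, 1:3 vol, microfluidic, 9–30 mL/min; total lipid:mRNA ~10:1–30:1 w/w. Dialysis to DPBS, 0.2 μm filter. DLS 173° backscatter; Ribogreen encapsulation.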

[2] = Lipid nanoparticle size and polydispersity by dynamic light scattering (Malvern Zetasizer Nano ZS); conditions: LNP of cationic lipid/DSPC/cholesterol/PEG-lipid 50:10:38.5:1.5 with mRNA
Method in brief: as §1

[3] = Apparent pKa of LNP formulations, TNS fluorescence assay; conditions: LNP cationic lipid/DSPC/cholesterol/DMG-PEG 50/10/38.5/1.5 mol %, pH 3 to 9
Method in brief: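 LNPs (cationic lipid/DSPC/cholesterol/DMG-PEG 50/10/38.5/1.5 mol %) at 0.1 mg/ml total lipid in citrate/phosphate/borate buffers, pH 3–9, with TNS added; fluorescence read at room temperature (ex 325, em 435 nm). Apparent pKa is the pH giving half-maximal fluorescence from a sigmoidal fit.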

Encapsulation Efficiency [1]	polydispersity [2]	size (nm) [2]	Apparant Pka [3]	Compound
94.30%	0.06	63.54 nm	5.943	CCCCCCCCCCCCOCC(CN(CCCCCC(=O)OCC(CCCCCC)CCCCCCCC)CCN(CCO)C1CCC1)OCCCCCCCC (stereo not drawn) [Compound 33]
91.29%	0.01	103.64 nm	5.927	CCCCCCCCC(CCCCCC)CC(=O)OCC(CCCCN(CCN(CCO)C1CCC1)C1CCC1)COC(=O)CC(CCCCCC)CCCCCCCC (stereo not drawn) [Compound 79]
92.38%	0.079	84.46 nm	6.621	CCCCCCCCCCC(=O)OCC(CCCCN(CCN(CCO)C1CCC1)C1CCC1)COC(=O)CC(CCCCCC)CCCCCCCC (stereo not drawn) [Compound 82]
96.2%	0.055	70.83 nm	7.219	CCCCCCCCC(CCCCCCCC)CNC(=O)CCOC(COCCC(=O)OCC(CCCCCCCC)CCCCCCCC)CN(C)CCN(CCO)C1CCC1 (stereo not drawn) [Compound 61]
92.47%	0.044	64.08 nm	6.372	CCCCCCCCCCCCCCCC(=O)OCC(CCCCN(CCO)C1CCCCCC1)COC(=O)CC(CCCCCC)CCCCCCCC (stereo not drawn) [Compound 87]
93.02%	0.043	70.38 nm	7.024	CCCCC/C=C\C/C=C\CCCCCCCC(=O)OCC(CCCCN(CCO)C1CCCC1)COC(=O)CC(CCCCCC)CCCCCCCC (stereo not drawn) [Compound 90]
94.69%	0.088	76.26 nm	6.616	CCCCCCCCC(CCCCCCCC)COC(=O)CCOCC(CN(C)CCN(CCO)C1CCCCCC1)OCCC(=O)OCC(CCCCCCCC)CCCCCCCC (stereo not drawn) [Compound 73]
82.2%	0.196	77.98 nm	7.701	CCCCCCCCCCCCOCC(O)CN(CCCCCC(=O)OCC(CCCCCC)CCCCCCCC)CCN(CC)CC (stereo not drawn) [Compound 11]
90.7%	0.145	67.7 nm	5.96	CCCCCCCCCCCCOCC(CN(CCCCCC(=O)OCC(CCCCCC)CCCCCCCC)CCN(CCO)C1CCC1)OC(C)=O (stereo not drawn) [Compound 20]

Second part, the molecule before the results:

Compound	Encapsulation Efficiency [1]	polydispersity [2]	size (nm) [2]	Apparant Pka [3]
CCCCCCCCCCCCCCOC(COCCCCCCCCCCCC)CN(CCCCCC(=O)OCCCCCCCCCC)CCN(CCO)C1CCC1 (stereo not drawn) [Compound 47]	91.3%	0.082	82.89 nm	6.120
CCCCCCCCCCCCOCC(CN(C)CCN(CCO)C1CCCCC1)OCCCCCC (stereo not drawn) [Compound 45]	86.8%	0.289	68.33 nm	7.466
CCCCCCCCCCC(=O)OCC(CCCCN(CCO)C1CCC1)COC(=O)CC(CCCCCC)CCCCCCCC (stereo not drawn) [Compound 81]	88.28%	0.023	72.78 nm	6.79
CCCCCCCCCCCCOCC(CN(CCCCCC(=O)OCC(CCCCCC)CCCCCCCC)CCN(CCO)C1CCCCC1)OCCCCCCCC (stereo not drawn) [Compound 36]	94.20%	0.078	59.91 nm	5.774
CCCCCCCCCCCCOCC(CN(CCCCCC(=O)OCC(CCCCCC)CCCCCCCC)CCN(CCO)C1CC1)OCCCCCCCC (stereo not drawn) [Compound 34]	89.60%	0.103	58.33 nm	5.482
CCCCCCCCCCCCOCC(CN(CCCCCC(=O)OCC(CCCCCC)CCCCCCCC)CCN(CCO)C1CCC1)OCCCCCCCCCCCC (stereo not drawn) [Compound 28]	86.9%	0.2	54.96 nm	5.905
CCCCCCCCCCC(=O)OCC(CCCCN(CCO)C1CCCCC1)COC(=O)CC(CCCCCC)CCCCCCCC (stereo not drawn) [Compound 85]	92.17%	0.066	74.14 nm	6.438
CCCCCCCCCCCCOCC(CN(CCCCCC(=O)OCC(CCCCCC)CCCCCCCC)CCN(CCO)C1CCCC1)OCCCCCC (stereo not drawn) [Compound 24]	93.0%	0.094	56.39 nm	6.005
CCCCCCCCCCCCOCC(CN(CCCCCC(=O)OCC(CCCCCC)CCCCCCCC)CCN(CCO)C1CCC1)OCCCCCC (stereo not drawn) [Compound 23]	88.5%	0.076	74.73 nm	5.993
CCCCCCCCC(CCCCCC)CC(=O)OCC(CCCCN(CCO)C1CCCCC1)COC(=O)CC(CCCCCC)CCCCCCCC (stereo not drawn) [Compound 68]	89.42%	0.084	55.01 nm	6.22
CCCCCCCCCCCCOCC(CN(CCCCCC(=O)OCC(CCCCCC)CCCCCCCC)CCN(CCO)C1CC1)OCCCCCCCCCCCC (stereo not drawn) [Compound 27]	73.3%	0.139	65.62 nm	5.351
CCCCCCCCC(CCCCCCCC)CNC(=O)CCOCC(CN(C)CCN(CCO)C1CCCC1)OCCC(=O)NCC(CCCCCCCC)CCCCCCCC (stereo not drawn) [Compound 57]	97.0%	0.055	70.05 nm	7.73
